Target: P. falciparum apicoplast DNA polymerase (Pf-apPOL) (Plasmodium falciparum, UniProt Q8ILY1)
Test: Fluorescence-based high-throughput DNA polymerase assay (molecular beacon), primary screen and dose-response;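 on % inhibition Apol 40': compound concentration given in µM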
Format: biochemical
Settings: for DNA Pol: 90 min, 10 µM
Summary of the method: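 Single-point screening used 10 µM compound with 20 nM polymerase, 20 nM hairpin substrate and 6 µM dNTPs for 90 min at 25 °C. Confirmatory titrations (2.5–80 µM) followed fluorescence at three times, and IC50 was derived from a fit including a cooperativity term n.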

[1] = 'DNA Pol' of the 186 hits list (primary screen value)
[2] = first dose-response set, concentration 10

Chain of P. falciparum apicoplast DNA polymerase (Pf-apPOL) (Q8ILY1 entry or part of it): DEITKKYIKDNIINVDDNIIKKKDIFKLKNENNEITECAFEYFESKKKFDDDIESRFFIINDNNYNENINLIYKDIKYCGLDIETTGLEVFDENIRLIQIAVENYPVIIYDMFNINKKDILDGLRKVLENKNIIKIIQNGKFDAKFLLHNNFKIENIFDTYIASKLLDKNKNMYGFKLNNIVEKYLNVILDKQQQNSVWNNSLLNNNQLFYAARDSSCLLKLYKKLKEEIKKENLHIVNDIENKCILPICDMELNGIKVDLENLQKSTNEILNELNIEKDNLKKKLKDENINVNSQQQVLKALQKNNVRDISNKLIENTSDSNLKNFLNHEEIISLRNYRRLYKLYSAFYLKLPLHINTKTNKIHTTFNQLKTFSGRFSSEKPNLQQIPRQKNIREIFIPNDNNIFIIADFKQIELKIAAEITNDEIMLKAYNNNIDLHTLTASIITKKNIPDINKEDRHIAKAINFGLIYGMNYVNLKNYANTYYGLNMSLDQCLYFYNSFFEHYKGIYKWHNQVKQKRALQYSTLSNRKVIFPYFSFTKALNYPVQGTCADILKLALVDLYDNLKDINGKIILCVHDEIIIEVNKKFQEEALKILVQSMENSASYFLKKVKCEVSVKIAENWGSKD

O=C(NNC(=O)c1ccc(Cl)cc1)C(=O)NNC(=O)c1ccc(Cl)cc1 [Molecule 25, O=C(C(=O)NNC(=O)c1ccc(cc1)Cl)NNC(=O)c1ccc(cc1)Cl]
DNA Pol [1]: 75 | DNA Pol (DNA Pol (primary screen value)): 75 | % inhibition Apo pol 10' (DRC-1, concentration 2.5): 0.1123% | % inhibition Apo pol 10' (DRC-1, concentration 5): 29.8674% | % inhibition Apo pol 10' (DRC-1, concentration 10): 53.2072% | % inhibition Apo pol 10' (DRC-1, concentration 20): 61.5061% | % inhibition Apo pol 10' (DRC-1, concentration 40): 64.1413% | % inhibition Apo pol 10' (DRC-1, concentration 80): 75.0048% | % inhibition Apol 90' (DRC-1, concentration 2.5): -1.798% | % inhibition Apol 90' (DRC-1, concentration 5): 28.7698% | % inhibition Apol 90' (DRC-1, concentration 10): 48.8169% | % inhibition Apol 90' (DRC-1, concentration 20): 54.9619% | % inhibition Apol 90' (DRC-1, concentration 40): 57.5316% | % inhibition Apol 90' (DRC-1, concentration 80): 69.6376% | % inhibition apPOL 180' (DRC-1, concentration 2.5): -4.906% | % inhibition apPOL 180' (DRC-1, concentration 5): 25.5591% | % inhibition apPOL 180' (DRC-1, concentration 10): 45.9729% | % inhibition apPOL 180' (DRC-1, concentration 20): 50.6657% | % inhibition apPOL 180' (DRC-1, concentration 40): 53.135% | % inhibition apPOL 180' (DRC-1, concentration 80): 64.4119% | % inhibition Apo pol 5' (DRC-2, concentration 2.5): 2.6% | % inhibition Apo pol 5' (DRC-2, concentration 5): 10% | % inhibition Apo pol 5' (DRC-2, concentration 10): 29% | % inhibition Apo pol 5' (DRC-2, concentration 20): 45% | % inhibition Apo pol 5' (DRC-2, concentration 40): 49% | % inhibition Apo pol 5' (DRC-2, concentration 80): 51% | % inhibition Apol 40' (DRC-2, concentration 2.5): 2% | % inhibition Apol 40' (DRC-2, concentration 5): 13% | % inhibition Apol 40' (DRC-2, concentration 10): 35% | % inhibition Apol 40' (DRC-2, concentration 20): 54% | % inhibition Apol 40' (DRC-2, concentration 40): 58% | % inhibition Apol 40' (DRC-2, concentration 80): 62% | % inhibition ApPOL 90' (DRC-2, concentration 2.5): 0.656% | % inhibition ApPOL 90' (DRC-2, concentration 5): 13% | % inhibition ApPOL 90' (DRC-2, concentration 10): 36% | % inhibition ApPOL 90' (DRC-2, concentration 20): 54% | % inhibition ApPOL 90' (DRC-2, concentration 40): 60% | % inhibition ApPOL 90' (DRC-2, concentration 80): 64% | % inhibition apPOL 180' (DRC-2, concentration 2.5): -2.65% | % inhibition apPOL 180' (DRC-2, concentration 5): 7.39% | % inhibition apPOL 180' (DRC-2, concentration 10): 30% | % inhibition apPOL 180' (DRC-2, concentration 20): 48% | % inhibition apPOL 180' (DRC-2, concentration 40): 55% | % inhibition apPOL 180' (DRC-2, concentration 80): 62%

COc1ccc(C(=O)N2CCc3c(nc4cc(-c5ccccc5Cl)[nH]n4c3=O)C2)cn1 [Molecule 26, COc1ccc(cn1)C(=O)N1CCc2c(C1)nc1n(c2=O)[nH]c(c1)c1ccccc1Cl]
DNA Pol [1]: 36 | DNA Pol (DNA Pol (primary screen value)): 36 | % inhibition Apo pol 10' (DRC-1, concentration 2.5): 0.687% | % inhibition Apo pol 10' (DRC-1, concentration 5): 20% | % inhibition Apo pol 10' (DRC-1, concentration 10): 48% | % inhibition Apo pol 10' (DRC-1, concentration 20): 85% | % inhibition Apo pol 10' (DRC-1, concentration 40): 91% | % inhibition Apo pol 10' (DRC-1, concentration 80): 87% | % inhibition Apol 90' (DRC-1, concentration 2.5): -2.83% | % inhibition Apol 90' (DRC-1, concentration 5): 11% | % inhibition Apol 90' (DRC-1, concentration 10): 33% | % inhibition Apol 90' (DRC-1, concentration 20): 74% | % inhibition Apol 90' (DRC-1, concentration 40): 82% | % inhibition Apol 90' (DRC-1, concentration 80): 82% | % inhibition apPOL 180' (DRC-1, concentration 2.5): -5.33% | % inhibition apPOL 180' (DRC-1, concentration 5): 3.47% | % inhibition apPOL 180' (DRC-1, concentration 10): 20% | % inhibition apPOL 180' (DRC-1, concentration 20): 60% | % inhibition apPOL 180' (DRC-1, concentration 40): 70% | % inhibition apPOL 180' (DRC-1, concentration 80): 71% | % inhibition Apo pol 5' (DRC-2, concentration 2.5): 7% | % inhibition Apo pol 5' (DRC-2, concentration 5): 7% | % inhibition Apo pol 5' (DRC-2, concentration 10): 28% | % inhibition Apo pol 5' (DRC-2, concentration 20): 47% | % inhibition Apo pol 5' (DRC-2, concentration 40): 54% | % inhibition Apo pol 5' (DRC-2, concentration 80): 47% | % inhibition Apol 40' (DRC-2, concentration 2.5): 6.48% | % inhibition Apol 40' (DRC-2, concentration 5): 6.59% | % inhibition Apol 40' (DRC-2, concentration 10): 30% | % inhibition Apol 40' (DRC-2, concentration 20): 56% | % inhibition Apol 40' (DRC-2, concentration 40): 64% | % inhibition Apol 40' (DRC-2, concentration 80): 62% | % inhibition ApPOL 90' (DRC-2, concentration 2.5): 6% | % inhibition ApPOL 90' (DRC-2, concentration 5): 4.56% | % inhibition ApPOL 90' (DRC-2, concentration 10): 28% | % inhibition ApPOL 90' (DRC-2, concentration 20): 56% | % inhibition ApPOL 90' (DRC-2, concentration 40): 63% | % inhibition ApPOL 90' (DRC-2, concentration 80): 63% | % inhibition apPOL 180' (DRC-2, concentration 2.5): 3.22% | % inhibition apPOL 180' (DRC-2, concentration 5): 3% | % inhibition apPOL 180' (DRC-2, concentration 10): 20% | % inhibition apPOL 180' (DRC-2, concentration 20): 48% | % inhibition apPOL 180' (DRC-2, concentration 40): 55% | % inhibition apPOL 180' (DRC-2, concentration 80): 57% | % inhibition Apo pol 10' (first dose-response set, concentration 5): 20% | % inhibition Apo pol 10' [2]: 48% | % inhibition Apol 90' (first dose-response set, concentration 40): 82% | % inhibition Apol 90' (first dose-response set, concentration 80): 82% | % inhibition apPOL 180' [2]: 20%
